Experimental data from US20010055756A1, “Internal de novo initiation sites of the HCV NS5B polymerase and use thereof” (priority 2000, published 2001).
Entries after “also recorded” stand apart in the source; their conditions may differ.

System: HCV NS5B polymerase
Test: Testing of GTP analogs in the NS5B de novo initiation reaction with RNA template 24-1
Type: biochemical, hepatitis C virus
Settings: analog at 500 μM added to reactions with 100 μM or 500 μM GTP, 5 nM NS5B, 10 nM template 24-1, 2.5 h
Procedure: Unless indicated otherwise, the standard reactions that incorporated [α-^33P]UTP contained 5 nM of purified NS5B and 10-50 nM of the indicated RNA template (i.e.: 24, 24-1, 128-4, 130-21, 150-41 or mutant templates) incubated at 22° C. for 2.5 h in 22.5 mM Tris-HCl pH 7.5, 5 mM MgCl2, 1 mM EDTA, 1.5 mM DTT, 30 mM NaCl, 0.33% N-Dodecyl-β-D-Maltoside, 0.01% Igepal CA-630, 5% DMSO, 5 μCi [α-^33P]UTP, 10 μM UTP, 500 μM of the three other rNTPs and 0.16 U/μl RNase inhibitor (Promega). NS5B polymerase reactions that incorporated γ-^32P into the radioactively labeled 5′product were supplemented with either 8 μCi of [γ-^32P]GTP or [γ-^32P]ATP in place of [α-^33P]UTP in the standard reaction. The reactions were then supplemented with PK buffer (50 mM Tris HCl pH 7.5 150 mM NaCl, 0.5% SDS) and treated with Proteinase K (0.8 μg /μl) and glycogen (0.1 μg/μl) for 30 min at 37° C. RNA was extracted with phenol-chloroform and precipitated with isopropanol. The RNA pellet was dissolved in 10-15 μl of denaturing solution (80% formamide, 10 mM EDTA), heated for 10 min at 70-75° C. and analysed on denaturing 8 M urea/5% polyacrylamide gels. Gels were dried and radioactive products visualized with a phospho-imager (Molecular Dynamics).
m7GpppG and GpppG were purchased from Ambion; Ribavirin monophosphate and Ribavirin triphosphate were purchased from Chemgenes (Ashland, Mass.); ddGTP was from Amersham; Caged GTP was from Molecular Probes. All other GTP analogs were from Sigma/Aldrich. Each of the analogs was added (at 500 μM) to the NS5B polymerization reaction containing either: 100 μM or 500 μM GTP (reference reactions). Stimulation by GTP itself, as a positive control, was performed such that the reactions then contained 600 μM or 1 mM GTP (respectively labeled as the +500 μM GTP bars). The standard polymerase reactions incorporating [α-^33P]UTP were incubated for 2.5 h in the presence of 5 nM NS5B and 10 nM of RNA template 24-1. The reactions were stopped by spotting 8 μl on a DE81 filters which were then washed extensively (3×) with 1M NaPO4 pH 7 and dried. The radioactivity incorporated into product RNA that was retained on the DE-81 filters was measured in a scintillation counter. The effect of the various analogs on the reaction is represented by the fold stimulation of activity compared to 100μM or 500μM GTP (reference reaction bars). 5′-p-FSBA=5′-p-fluorosulfonyl-benzoyladenosine

Compound	effect on de novo initiation reaction (fold stimulation relative to GTP alone)	other results
Nc1nc2c(ncn2[C@@H]2O[C@H](COP(=O)(O)O)[C@@H](O)[C@H]2O)c(=O)[nH]1 [GMP]	stimulating	–
Nc1nc2c(ncn2C(C=O)OC(C=O)COP(=O)(O)OP(=O)(O)OP(=O)(O)O)c(=O)[nH]1.[Na] (stereo not drawn) [GTP 2′3′-dialdehyde]	clear inhibitor; also recorded: inhibiting	effect on de novo initiation reaction (fold stimulation relative to GTP alone) (listed as GTP 2′3′dialdehyde): inhibitory
Nc1nc2c(ncn2[C@@H]2O[C@H](COP(=O)(O)OP(=O)(O)OP(=O)(O)O)[C@@H](O)[C@H]2O)c(=O)[nH]1 [GTP]	activation	–
Nc1nc2c(ncn2[C@@H]2O[C@H](COP(=O)(O)OP(=O)(O)OP(=O)(O)OC[C@H]3O[C@@H](n4cnc5c(=O)[nH]c(N)nc54)[C@H](O)[C@@H]3O)[C@@H](O)[C@H]2O)c(=O)[nH]1 [GpppG]	most efficient analogs in stimulating de novo initiation; also recorded: stimulating; also recorded: stimulate	–
CC(OP(=O)(O)OP(=O)(O)OP(=O)(O)OC[C@H]1O[C@@H](n2cnc3c(=O)[nH]c(N)nc32)[C@H](O)[C@@H]1O)c1ccccc1[N+](=O)[O-] (stereo partly drawn) [caged-GTP]	stimulating	–
Nc1nc2c(ncn2[C@@H]2O[C@H](CO)[C@@H](O)[C@H]2O)c(=O)[nH]1 [guanosine]	stimulating; also recorded: stimulate	–
Cn1c[n+]([C@@H]2O[C@H](COP(=O)(O)OP(=O)([O-])OP(=O)(O)OC[C@H]3O[C@@H](n4cnc5c(=O)[nH]c(N)nc54)[C@H](O)[C@@H]3O)[C@@H](O)[C@H]2O)c2nc(N)[nH]c(=O)c21 [m7 GpppG, 7-methyl GpppG]	most efficient analogs in stimulating de novo initiation	effect on de novo initiation reaction (fold stimulation relative to GTP alone) (listed as 7-methyl GpppG): stimulating; also recorded: stimulate
NC(=O)c1ncn([C@@H]2O[C@H](CO[P@@](=O)(O)O[P@](=O)(O)OP(=O)(O)O)[C@@H](O)[C@H]2O)n1 [ribavirin tri-phosphate, Ribavirin triphosphate]	moderate level of inhibition	effect on de novo initiation reaction (fold stimulation relative to GTP alone) (listed as ribavirin triphosphate): inhibiting; also recorded: inhibitory
GDP-γ-S	stimulating	–
